Measurements: US20080113938A1, “ACCELERATOR FOR MINERAL ABSORPTION AND USE THEREOF” (KABUSHIKI KAISHA HAYASHIBARA SEIBUTSU KAGAKU KENKYUJO, priority 2003, published 2008)
Marks after values point to notes of the source that are not given here.

What was measured:
Assay type in all cases: cell-based, Wister rats
[1] = test system: reversed canal sac of colon/rectum; experiment: Calcium absorption in reversed canal sac, colon/rectum
Description: (§1) Experiment 1 confirmed that cyclic tetrasaccharide promotes mineral absorption in alimentary canal of rat concretely in intestinum ileum or its upper alimentary canal. The following experiment was carried out in order to determine a part of alimentary canal, cyclic tetrasaccharide acts on to promote mineral absorption. Twenty heads of Wister rats (nine week aged male, commercialized by Charlesriver Corporation, Kanagawa, Japan) were bred for three days with a usual solid feed for rats. Under the anesthetization with ether, alimentary canal was taken out from each rat which had been bled from a jugular vein and treated by abdominal operation. Each alimentary canal was divided into jejunum, intestinum ileum and colon/rectum and washed with physiological saline to remove the content. The resulting jejunum specimen, intestinum ileum specimen or colon/rectum specimen was cut off to prepare each midsection sized with about 10 cm in length. The resulting midsection of each specimen was reversed using a glass rod and immersed in a physiological saline babbled with gas consisting of 95% oxygen and 5% carbon dioxide. The resultant was cut into pieces sized with 5 cm in length and each piece was tied with a suture thread at both ends to prepare a reversed canal sac, and injected with about 0.5 ml of an internal sac solution containing 30 mM Tris-HCl buffer (pH7.4), 125 mM sodium chloride, 4 mM potassium chloride, 10 mM glucose and 1.25 mM calcium chloride (dihydrate) with a syringe and weighed. The resulting sac was immersed in an external sac solution (being bubbled with the gas consisting of 95% oxygen and 5% carbon dioxide) containing 50 mM, 100 mM or 200 mM of the same cyclic tetrasaccharide to Experiment 1 in the above solution containing 30 mM Tris-HCl buffer (pH7.4), 125 mM sodium chloride, 4 mM potassium chloride, 10 mM glucose and 1.25 mM calcium chloride (dihydrate). At 15 or 30 minutes after the immersion, the reversed canal sac was taken out from the solution and washed with distilled water. The internal sac solution was collected from the resulting sac and admixed with distilled water to give a final volume of 25 ml. The resulting solution was subjected to a calorimetric measurement of calcium content using “CALCIUM TEST C WAKO™” (commercialized by Wako Pure Chemicals Corporation, Osaka, Japan). As a negative control, an external sac solution without saccharides. As a positive control, an external sac solution containing 200 mM maltitol, reported to have the effect on promoting mineral absorption though intestinal canal, instead of cyclic tetrasaccharide were prepared and carried out in the same manner. Speed of calcium absorption (nmol/min·cm^2) and its relative values defining the value of negative control as 100 were calculated.

[2] = test system: reversed canal sac of jejunum; experiment: Calcium absorption in reversed canal sac, jejunum
Description: as §1

[3] = test system: reversed canal sac of intestinum ileum; experiment: Calcium absorption in reversed canal sac, intestinum ileum
Description: as §1

[4] = 200 mM saccharide in external sac solution

For OC[C@@H](O)[C@@H](O[C@H]1O[C@H](CO)[C@@H](O)[C@H](O)[C@H]1O)[C@H](O)[C@@H](O)CO [Maltitol, maltitol, reference compound], the “Absorption speed of calcium in alimentary canal sac, Colon/Rectum” value [1, 4] was 22.3 * nmol/min · cm^2, the “Relative value of calcium absorption speed (control = 100), Colon/Rectum” value [1, 4] was “(168)” and the “promotion of calcium absorption in colon/rectum” value ([1]; reversed sac) was “strongly promoted”. For the same molecule, the “Absorption speed of calcium in alimentary canal sac, Jejunum” value [2, 4] was 27.9 * nmol/min · cm^2, the “Relative value of calcium absorption speed (control = 100), Jejunum” value [2, 4] was “(131)” and the “promotion of calcium absorption in jejunum” value ([2]; reversed sac) was “strongly promoted”. The “Absorption speed of calcium in alimentary canal sac, Intestinum ileum” value [3, 4] was 40.5 * nmol/min · cm^2, the “Relative value of calcium absorption speed (control = 100), Intestinum ileum” value [3, 4] was “(150)” and the “promotion of calcium absorption in intestinum ileum” value ([3]; reversed sac) was “strongly promoted”.
